Test results reported in PubChem BioAssay AID298 (DTP/NCI, 2004).
Where “and” joins values, the source holds several entries; their conditions need not be identical. Identical values can stand only once. Inconclusive results are not listed.

Tested on: MX-1 breast xenograft, intrarenal, nude mice, tumor weight
Assay: NCI In Vivo Anticancer Drug Screen. Data for tumor model Human Mammary Carcinoma MX-1 Xenograft (intrarenal inoculation) in NU/NU BALB/C (nude) mice
Settings: endpoint: mean tumor weight change, higher = larger tumour
In short: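 Transplantable tumors established in mice; animals dosed with compound or vehicle; survival or tumor size then recorded. Result reported as treated (T) divided by vehicle control (C).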

[1] = dose: 300.0 mg/kg/injection, schedule: Q04DX003 (sc), vehicle: saline
[2] = dose: 600.0 mg/kg/injection, schedule: Q04DX003 (sc), vehicle: saline
[3] = dose: 150.0 mg/kg/injection, schedule: Q04DX003 (ip), vehicle: saline with Tween-80
[4] = dose: 300.0 mg/kg/injection, schedule: Q04DX003 (ip), vehicle: saline with Tween-80
[5] = dose: 600.0 mg/kg/injection, schedule: Q04DX003 (ip), vehicle: saline with Tween-80
[6] = dose: 1200.0 mg/kg/injection, schedule: Q04DX003 (ip), vehicle: saline with Tween-80
[7] = dose: 25.0 mg/kg/injection, schedule: Q04DX003 (ip), vehicle: water
[8] = dose: 100.0 mg/kg/injection, schedule: Q04DX003 (ip), vehicle: saline with Tween-80
[9] = dose: 200.0 mg/kg/injection, schedule: Q04DX003 (ip), vehicle: saline with Tween-80
[10] = dose: 150.0 mg/kg/injection, schedule: Q04DX003 (sc), vehicle: saline
[11] = dose: 150.0 mg/kg/injection, schedule: Q04DX003 (ip), vehicle: Klucel (hydroxypropylcellulose) (HPC)
[12] = dose: 300.0 mg/kg/injection, schedule: Q04DX003 (ip), vehicle: Klucel (hydroxypropylcellulose) (HPC)
[13] = dose: 600.0 mg/kg/injection, schedule: Q04DX003 (ip), vehicle: Klucel (hydroxypropylcellulose) (HPC)

NCCSC(C[N+](=O)[O-])c1ccccc1Cl (stereo unspecified)
T/C (dose: 25.0 mg/kg/injection, schedule: Q04DX003 (ip), vehicle: saline): 86 % of control
T/C (dose: 50.0 mg/kg/injection, schedule: Q04DX003 (ip), vehicle: saline): 86 % of control
T/C (dose: 100.0 mg/kg/injection, schedule: Q04DX003 (ip), vehicle: saline): 85 % of control

OCC1OC(n2cnc3c(=S)nc[nH]c32)C(O)C1O (stereo unspecified)
T/C [1]: 86 % of control
T/C [2]: 58 % of control
T/C (dose: 1200.0 mg/kg/injection, schedule: Q04DX003 (sc), vehicle: saline): 59 % of control and 75 % of control
T/C (dose: 1600.0 mg/kg/injection, schedule: Q04DX003 (sc), vehicle: saline): 49 % of control
T/C (dose: 2000.0 mg/kg/injection, schedule: Q04DX003 (sc), vehicle: saline): 65 % of control
T/C (dose: 2400.0 mg/kg/injection, schedule: Q04DX003 (sc), vehicle: saline): 23 % of control and 39 % of control

CC1=C/C(O)CC(=O)Cc2nc(co2)C(=O)N2CCC=C2C(=O)OC(C(C)C)C(C)/C=C\C(=O)NC/C=C\1 (stereo unspecified)
T/C (dose: 600.0 mg/kg/injection, schedule: Q04DX003 (sc), vehicle: Klucel (hydroxypropylcellulose) (HPC)): 104 % of control
T/C (dose: 1200.0 mg/kg/injection, schedule: Q04DX003 (sc), vehicle: Klucel (hydroxypropylcellulose) (HPC)): 92 % of control
T/C (dose: 2400.0 mg/kg/injection, schedule: Q04DX003 (sc), vehicle: Klucel (hydroxypropylcellulose) (HPC)): 88 % of control

O=C1C2CC(Cl)C(SSC3CC4C(=O)N(SC(Cl)(Cl)C(Cl)Cl)C(=O)C4CC3Cl)CC2C(=O)N1SC(Cl)(Cl)C(Cl)Cl (stereo unspecified)
T/C (dose: 75.0 mg/kg/injection, schedule: Q04DX003 (ip), vehicle: saline with Tween-80): 88 % of control
T/C [3]: 45 % of control

c1ccc(-c2cc3cc4ccccc4cn3c2)cc1
T/C [3]: 61 % of control
T/C [4]: 108 % of control
T/C [5]: 81 % of control
T/C [6]: 101 % of control

CCN(CC)CCn1[nH]c2c3ccc(=O)cc3sc3c(NCCN)ccc1c32
T/C (dose: 3.12 mg/kg/injection, schedule: Q04DX003 (ip), vehicle: water): 26 % of control and 40 % of control
T/C (dose: 6.25 mg/kg/injection, schedule: Q04DX003 (ip), vehicle: water): 35 % of control and 38 % of control and 42 % of control
T/C [7]: 50 % of control

COC1C(N)C(OC2C(Oc3cccc4c(O)c5c(=O)oc6ccc(C)c7c(=O)oc(c34)c5c67)OC(C)C(O)C2(C)O)OC(C)C1O (stereo unspecified)
T/C (dose: 2.5 mg/kg/injection, schedule: Q04DX003 (ip), vehicle: lactic acid): 90 % of control
T/C (dose: 10.0 mg/kg/injection, schedule: Q04DX003 (ip), vehicle: lactic acid): 6 % of control

CN(C)C(=O)Nc1ccc(Cl)cc1
T/C (dose: 150.0 mg/kg/injection, schedule: Q04DX003 (ip), vehicle: suspension in saline): 71 % of control
T/C (dose: 300.0 mg/kg/injection, schedule: Q04DX003 (ip), vehicle: suspension in saline): 98 % of control
T/C (dose: 600.0 mg/kg/injection, schedule: Q04DX003 (ip), vehicle: suspension in saline): 91 % of control

COc1ccc(O)cc1
T/C (dose: 50.0 mg/kg/injection, schedule: Q04DX003 (ip), vehicle: saline with Tween-80): 76 % of control
T/C [8]: 87 % of control
T/C [9]: 79 % of control
T/C (dose: 400.0 mg/kg/injection, schedule: Q04DX003 (ip), vehicle: saline with Tween-80): 53 % of control

CN(C)c1nc(N(C)C)[n+]([O-])c(N(C)C)n1
T/C (dose: 200.0 mg/kg/injection, schedule: Q01DX010 (ip), vehicle: water): 83 % of control
T/C (dose: 400.0 mg/kg/injection, schedule: Q01DX010 (ip), vehicle: water): 107 % of control

COC(=O)Nc1nc2ccc(C3(c4ccc(F)cc4)OCCO3)cc2[nH]1
T/C (dose: 600.0 mg/kg/injection, schedule: Q04DX003 (sc), vehicle: saline with Tween-80): 190 % of control

Cc1ccc2c(c1)C1(SC(C)C(=O)N1c1ccc(Cl)cc1)C(=O)N2 (stereo unspecified)
T/C [8]: 107 % of control
T/C [9]: 85 % of control
T/C (dose: 800.0 mg/kg/injection, schedule: Q04DX003 (ip), vehicle: saline with Tween-80): 72 % of control

CN(C)c1ccc(C(=C2C=CC(=[N+](C)C)C=C2)c2ccc(N(C)C)cc2)cc1 (tested in a mixture with another compound)
T/C (dose: 15.0 mg/kg/injection, schedule: Q04DX003 (sc), vehicle: saline with Tween-80): 124 % of control
T/C (dose: 30.0 mg/kg/injection, schedule: Q04DX003 (sc), vehicle: saline with Tween-80): 84 % of control
T/C (dose: 60.0 mg/kg/injection, schedule: Q04DX003 (sc), vehicle: saline with Tween-80): 98 % of control
T/C (dose: 120.0 mg/kg/injection, schedule: Q04DX003 (sc), vehicle: saline with Tween-80): 75 % of control
T/C (dose: 150.0 mg/kg/injection, schedule: Q04DX003 (sc), vehicle: saline with Tween-80): 73 % of control

CC1(C)OCC2OC=CC(=O)C2O1 (stereo unspecified)
T/C [10]: 110 % of control
T/C [1]: 97 % of control
T/C [2]: 74 % of control

C[C@]12CCC(=O)C(O)=C1CC[C@@H]1[C@@H]2CC[C@]2(C)C(=O)CC[C@@H]12
T/C [11]: 101 % of control
T/C [12]: 96 % of control
T/C [13]: 122 % of control
T/C (dose: 1200.0 mg/kg/injection, schedule: Q04DX003 (ip), vehicle: Klucel (hydroxypropylcellulose) (HPC)): 113 % of control

CC(C)(C)c1ccc(C(=O)N2CCOC23CCCCC3)cc1
T/C [3]: 69 % of control and 87 % of control
T/C [4]: 96 % of control and 112 % of control
T/C [5]: 80 % of control and 88 % of control
T/C [6]: 95 % of control and 106 % of control

CSc1ncnc2c1ncn2C1OC(CO)C(O)C1O (stereo unspecified)
T/C (dose: 75.0 mg/kg/injection, schedule: Q04DX003 (sc), vehicle: saline + alcohol): 1 % of control
T/C (dose: 150.0 mg/kg/injection, schedule: Q04DX003 (sc), vehicle: saline + alcohol): -97 % of control

CCCn1c(SC)nc(COC(=O)NC)c1COC(=O)NC
T/C (dose: 30.0 mg/kg/injection, schedule: Q04DX003 (ip), vehicle: saline): 62 % of control
T/C (dose: 60.0 mg/kg/injection, schedule: Q04DX003 (ip), vehicle: saline): 38 % of control
T/C (dose: 120.0 mg/kg/injection, schedule: Q04DX003 (ip), vehicle: saline): 7 % of control
T/C (dose: 240.0 mg/kg/injection, schedule: Q04DX003 (ip), vehicle: saline): -100 % of control

O=NNc1cnccn1
T/C (dose: 12.5 mg/kg/injection, schedule: Q04DX003 (ip), vehicle: water): 53 % of control and 74 % of control
T/C [7]: 26 % of control (2×) and 41 % of control
T/C (dose: 50.0 mg/kg/injection, schedule: Q04DX003 (ip), vehicle: water): 7 % of control and 8 % of control and 16 % of control

O=C1CNC(=O)N1CN1CCOCC1
T/C [11]: 83 % of control
T/C [12]: 89 % of control
T/C [13]: 81 % of control

Oc1c(Cl)cc(Cl)cc1C=NCCSc1ccc(Cl)cc1
T/C [11]: 99 % of control and 112 % of control
T/C [12]: 95 % of control
T/C [13]: 104 % of control and 107 % of control

O=C(O)CCCc1ccc(N(CCCl)CCCl)cc1
T/C (dose: 12.0 mg/kg/injection, schedule: Q04DX003 (ip), vehicle: Klucel (hydroxypropylcellulose) (HPC)): 1 % of control and 4 % of control
T/C (dose: 18.0 mg/kg/injection, schedule: Q04DX003 (ip), vehicle: Klucel (hydroxypropylcellulose) (HPC)): 4 % of control
T/C (dose: 27.0 mg/kg/injection, schedule: Q04DX003 (ip), vehicle: Klucel (hydroxypropylcellulose) (HPC)): -55 % of control

CO[C@@H]1C2=CC=CC=C[C@H]2n2c(=O)n(C)c(=O)n21
T/C (dose: 75.0 mg/kg/injection, schedule: Q04DX003 (ip), vehicle: other): 36 % of control
T/C (dose: 150.0 mg/kg/injection, schedule: Q04DX003 (ip), vehicle: other): 34 % of control
T/C (dose: 300.0 mg/kg/injection, schedule: Q04DX003 (ip), vehicle: other): 92 % of control

CCOc1cc2c(cc1C(C)c1ccc(OC)cc1)OCO2 (stereo unspecified)
T/C (dose: 300.0 mg/kg/injection, schedule: Q04DX003 (sc), vehicle: distilled water + alcohol): 36 % of control
T/C (dose: 600.0 mg/kg/injection, schedule: Q04DX003 (sc), vehicle: distilled water + alcohol): 90 % of control
T/C (dose: 1200.0 mg/kg/injection, schedule: Q04DX003 (sc), vehicle: distilled water + alcohol): 76 % of control
T/C (dose: 2400.0 mg/kg/injection, schedule: Q04DX003 (sc), vehicle: distilled water + alcohol): 111 % of control

CN(CCN(C)C(=O)CCOS(C)(=O)=O)C(=O)CCOS(C)(=O)=O
T/C (dose: 37.5 mg/kg/injection, schedule: Q04DX003 (sc), vehicle: saline): 7 % of control
T/C (dose: 75.0 mg/kg/injection, schedule: Q04DX003 (sc), vehicle: saline): -100 % of control
T/C [10]: -100 % of control
T/C [1]: -44 % of control
